IC50 data for nine compounds are collected here from patent publication US9233983B2, “Substituted hetero-bicyclic compounds, compositions and medicinal applications thereof” (ADVINUS THERAPEUTICS LIMITED, priority 2012, dated 2016).

The pIC50 is −log10 of the IC50, conventionally taken in molar units.

For assay [1], the target named is human Bruton's Tyrosine Kinase (Btk) (Homo sapiens (Human), UniProt Q06187). Kind of assay: Recombinant Human Bruton's Tyrosine Kinase (Btk) Inhibition Assay (HTRF KinEASE-TK). In kind it is biochemical. The note with it: 20 ng/ml rhBtk, 77 μM ATP (KM), 1 μM TK-Biotin substrate, 90 min; read-out: hBTK IC50. In general terms: Time-resolved FRET reads energy transfer from a long-lived donor to a nearby acceptor.

Assay [2] has as its system mouse splenocytes. The assay is described as follows: Inhibition of B Cell Activation as Measured by CD69 Expression in Mouse Splenocytes. In kind it is cell-based. The settings on record: Splenocyte; C57/BL6 splenocytes, 3 ug/mL goat anti-mouse IgM, 18-20 hrs, CD69+ve cells within CD19; read-out: Mouse spleenocyte IC50. As to the method: Inhibition of B Cell Activation as Measured by CD69 Expression in Mouse Splenocytes:
To test the effect of BTK inhibitors in suppressing B-cell receptor (BCR) mediated activation of B cells, we developed a flow cytometry based assay to analyze CD69 expression in B cell population among total splenocyte from the mouse. […] Finally, cell were cultured in RPMI medium with 10% FBS.
Test compounds were diluted half log starting from 2 mM in 100% DMSO (200×). 1×10^5 splenocytes were incubated with 1 uL of diluted test compounds in 200 uL culture medium in a U-bottom 96 well plate (Greiner) at 37° C. with 5% CO2 for 30 mins. Control wells received 1 uL of 100% DMSO without any compound. The cells were stimulated with 3 ug/mL goat anti-mouse IgM (Sigma, cat#M8644) and incubated for 18-20 hrs. […] Then the cells were washed 3 times with PBS with 1% FBS and analyzed by Guava Easycyte Mini flow cytometer system (Millipore). Flow cytometry data were analyzed using Weasel software (WEHI, Melbourne). First B cells were gated using CD19 markers. Then expression of CD69 was analyzed as percentage of CD69+ve cells within CD19. Percent activity for each data point was calculated using following formula: […]
Percentage activity was fit using sigmoid dose response with variable slope logistic equation in Graph-pad Prism 5 software to determine inhibition constant 50 (IC50).

Structures are written as SMILES. pIC50: −log10 of the molar value.

Chain of human Bruton's Tyrosine Kinase (Btk) (Q06187 whole entry): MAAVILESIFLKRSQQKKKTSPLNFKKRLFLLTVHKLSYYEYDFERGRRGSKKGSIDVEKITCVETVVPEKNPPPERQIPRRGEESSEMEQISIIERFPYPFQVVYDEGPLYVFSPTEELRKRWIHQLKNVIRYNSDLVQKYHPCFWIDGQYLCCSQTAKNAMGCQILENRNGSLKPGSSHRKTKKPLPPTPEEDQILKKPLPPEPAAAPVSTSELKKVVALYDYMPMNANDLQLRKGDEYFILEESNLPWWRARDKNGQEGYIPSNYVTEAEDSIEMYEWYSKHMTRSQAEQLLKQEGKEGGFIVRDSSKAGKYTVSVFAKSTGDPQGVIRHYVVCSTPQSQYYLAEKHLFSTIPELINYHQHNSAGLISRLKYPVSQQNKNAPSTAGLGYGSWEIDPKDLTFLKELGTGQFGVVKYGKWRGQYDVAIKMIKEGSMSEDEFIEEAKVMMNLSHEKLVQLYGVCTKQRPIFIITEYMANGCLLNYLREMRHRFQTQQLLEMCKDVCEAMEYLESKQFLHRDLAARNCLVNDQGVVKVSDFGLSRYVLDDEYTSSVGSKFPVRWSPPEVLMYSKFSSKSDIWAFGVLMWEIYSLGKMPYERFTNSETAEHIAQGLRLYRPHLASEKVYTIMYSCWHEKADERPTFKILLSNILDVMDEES

Consider `CN1CCN(Cc2ccc(-c3cc4c(-c5cccc(N6CCOc7cc(C8CC8)ccc7C6=O)c5CO)ccnc4[nH]3)cn2)CC1` [Example B-20, 8-cyclopropyl-4-[2-(hydroxymethyl)-3-[2-[6-[(4-methylpiperazin-1-yl)methyl]-3-pyridyl]-1H-pyrrolo[2,3-b]pyridin-4-yl]phenyl]-2,3-dihydro-1,4-benzoxazepin-5-one], for which the pIC50 in assay [1] was 8.15; in assay [2] it was 7.17.
For `Cc1c(-c2ncnc3[nH]c(-c4ccc(CN5CCC(O)CC5)cc4)cc23)cccc1N1CCc2cc(C3CC3)ccc2C1=O` [Example B-22, 6-cyclopropyl-2-[3-[6-[4-[(4-hydroxy-1-piperidyl)methyl]phenyl]-7H-pyrrolo[2,3-d]pyrimidin-4-yl]-2-methyl-phenyl]-3,4-dihydroisoquinolin-1-one], the pIC50 is 7.49 in assay [1] and 6.86 in assay [2].
In the same order, the values of `CN1CCN(c2ccc(-c3cc4c(-c5cccc(-n6ccc7cc(C8CC8)ccc7c6=O)c5CO)ncnc4[nH]3)cc2)CC1` [Example C-1, 6-cyclopropyl-2-[2-(hydroxymethyl)-3-[6-[4-(4-methylpiperazin-1-yl)phenyl]-7H-pyrrolo[2,3-d]pyrimidin-4-yl]phenyl]isoquinolin-1-one] are 8.30 and 8.05.
For `CN1CCN(c2ccc(-c3cc4c(-c5cccc(N6CCOc7cc(C8CC8)ccc7C6=O)c5CO)ncnc4[nH]3)cc2)CC1` [Example C-2, 8-cyclopropyl-4-[2-(hydroxymethyl)-3-[6-[4-(4-methylpiperazin-1-yl)phenyl]-7H-pyrrolo[2,3-d]pyrimidin-4-yl]phenyl]-2,3-dihydro-1,4-benzoxazepin-5-one], in that order: 7.92 and 7.44.
Consider `Cc1c(-c2ncnc3[nH]c(-c4ccc(N5CCN(C)CC5)cc4)cc23)cccc1N1CCOc2cc(C3CC3)ccc2C1=O` [Example C-3, 8-cyclopropyl-4-[2-methyl-3-[6-[4-(4-methylpiperazin-1-yl)phenyl]-7H-pyrrolo[2,3-d]pyrimidin-4-yl]phenyl]-2,3-dihydro-1,4-benzoxazepin-5-one], for which the results for the negative logarithm of the IC50 (pIC50) in assay [1] and in assay [2] were 7.68 and 6.76, respectively.
For `CN1CCOC(c2ccc(-c3cc4c(-c5cccc(N6CCOc7cc(C8CC8)ccc7C6=O)c5CO)ccnc4[nH]3)cc2)C1` (stereo not drawn) [Example C-5, 8-cyclopropyl-4-[2-(hydroxymethyl)-3-[2-[4-(4-methylmorpholin-2-yl)phenyl]-1H-pyrrolo[2,3-b]pyridin-4-yl]phenyl]-2,3-dihydro-1,4-benzoxazepin-5-one], in that order: 8.52 and 6.90.
`CN1CCC(n2cc(-c3cc4c(-c5cccc(N6CCOc7cc(C8CC8)ccc7C6=O)c5CO)ncnc4[nH]3)cn2)CC1` [Example D-1, 8-cyclopropyl-4-[2-(hydroxymethyl)-3-[6-[1-(1-methyl-4-piperidyl)pyrazol-4-yl]-7H-pyrrolo[2,3-d]pyrimidin-4-yl]phenyl]-2,3-dihydro-1,4-benzoxazepin-5-one]: the negative logarithm of the IC50 (pIC50) was 8.22 in assay [1] and 7.49 in assay [2].
In the same order, the values of `CN1CCC(n2cc(-c3cc4c(-c5cccc(-n6ccc7cc(C8CC8)ccc7c6=O)c5CO)ncnc4[nH]3)cn2)CC1` [Example D-3, 6-cyclopropyl-2-[2-(hydroxymethyl)-3-[6-[1-(1-methyl-4-piperidyl)pyrazol-4-yl]-7H-pyrrolo[2,3-d]pyrimidin-4-yl]phenyl]isoquinolin-1-one] are 8.30 and 7.37.
In the same order, the values of `CN1CCC(c2ccc(-c3cc4c(-c5cccc(-n6ccc7cc(C8CC8)ccc7c6=O)c5CO)ncnc4[nH]3)cc2)CC1` [Example D-4, 6-cyclopropyl-2-[2-(hydroxymethyl)-3-[6-[4-(1-methyl-4-piperidyl)phenyl]-7H-pyrrolo[2,3-d]pyrimidin-4-yl]phenyl]isoquinolin-1-one] are 8.52 and 7.72.
